Consider five compounds from US6558923B2 (priority 1998, dated 2003).

Format in all cases: cell-based, HIV-1
One test has as its system NL4-3 reference virus. As to the kind of experiment: microbe, parasite or virus in culture. To be noted: Human immunodeficiency virus 1, NL43, read-out: Geometric-mean IC90.
Test [1] concerns recombinant virus carrying protease sequences from patient plasma.
The subject of test [2] is recombinant virus carrying gag-protease sequences from patient plasma.

As for `CC(C)CN(C[C@@H](O)[C@H](Cc1ccccc1)NC(=O)O[C@H]1CCOC1)S(=O)(=O)c1ccc(N)cc1` [Amprenavir, amprenavir], the IC90 with NL4-3 reference virus turned out to be 54 nM.

On to `CC(C)(C)NC(=O)[C@@H]1CN(Cc2cccnc2)CCN1C[C@@H](O)C[C@@H](Cc1ccccc1)C(=O)N[C@H]1c2ccccc2C[C@H]1O` [Indinavir], for which the “Effect of increasing protease inhibitor concentrations on infectivity of recombinant particles” value in test [1] is “clear and gradual inhibition of single-cycle particle infectivity”. Further, the IC90 in the test with NL4-3 reference virus came to 16 nM. In test [2], the Reduction in sensitivity is listed as 10 fold, the Sensitivity entry is “further reduced” and the “Sensitivity correlated with genotype” value is reported as “reduced sensitivity”.

On to `Cc1c(O)cccc1C(=O)N[C@@H](CSc1ccccc1)[C@H](O)CN1C[C@H]2CCCC[C@H]2C[C@H]1C(=O)NC(C)(C)C` [Nelfinavir, nelfinavir], for which, in the test on NL4-3 reference virus, the IC90 worked out at 3.5 nM. In addition, the “Sensitivity correlated with genotype” value in test [2] is “reduced sensitivity”.

Consider `CC(C)c1nc(CN(C)C(=O)N[C@H](C(=O)N[C@@H](Cc2ccccc2)C[C@H](O)[C@H](Cc2ccccc2)NC(=O)OCc2cncs2)C(C)C)cs1` [Ritonavir], for which, in the test with NL4-3 reference virus, the IC90 was 23 nM. In addition, in test [2], the “Sensitivity correlated with genotype” value is “reduced sensitivity”.

With `CC(C)(C)NC(=O)[C@@H]1C[C@@H]2CCCC[C@@H]2CN1C[C@@H](O)[C@H](Cc1ccccc1)NC(=O)[C@H](CC(N)=O)NC(=O)c1ccc2ccccc2n1` [Saquinavir], in test [1], the “Change in IC90” value is “prominent increase”; the “Effect of increasing protease inhibitor concentrations on infectivity of recombinant particles” value was “clear and gradual inhibition of single-cycle particle infectivity”; the “IC90 of pre-therapy recombinant viruses compared with the other protease inhibitors” value was “always significantly lower”; the “Susceptibility of pre-therapy virus from patient B versus pre-therapy virus from patient A” value is recorded as “clearly less susceptible”. Besides, the IC90 with NL4-3 reference virus came to 28 nM. Also, in test [2], the Reduction in sensitivity amounted to 4 fold, the Sensitivity result is given as “further reduced” and the “Sensitivity correlated with genotype” value was “resistance”.
